Structures are written as SMILES. A value given as a limit tells only on which side of the number the result lay.

Chain of HPK1 (Q92918 whole entry, species assumed): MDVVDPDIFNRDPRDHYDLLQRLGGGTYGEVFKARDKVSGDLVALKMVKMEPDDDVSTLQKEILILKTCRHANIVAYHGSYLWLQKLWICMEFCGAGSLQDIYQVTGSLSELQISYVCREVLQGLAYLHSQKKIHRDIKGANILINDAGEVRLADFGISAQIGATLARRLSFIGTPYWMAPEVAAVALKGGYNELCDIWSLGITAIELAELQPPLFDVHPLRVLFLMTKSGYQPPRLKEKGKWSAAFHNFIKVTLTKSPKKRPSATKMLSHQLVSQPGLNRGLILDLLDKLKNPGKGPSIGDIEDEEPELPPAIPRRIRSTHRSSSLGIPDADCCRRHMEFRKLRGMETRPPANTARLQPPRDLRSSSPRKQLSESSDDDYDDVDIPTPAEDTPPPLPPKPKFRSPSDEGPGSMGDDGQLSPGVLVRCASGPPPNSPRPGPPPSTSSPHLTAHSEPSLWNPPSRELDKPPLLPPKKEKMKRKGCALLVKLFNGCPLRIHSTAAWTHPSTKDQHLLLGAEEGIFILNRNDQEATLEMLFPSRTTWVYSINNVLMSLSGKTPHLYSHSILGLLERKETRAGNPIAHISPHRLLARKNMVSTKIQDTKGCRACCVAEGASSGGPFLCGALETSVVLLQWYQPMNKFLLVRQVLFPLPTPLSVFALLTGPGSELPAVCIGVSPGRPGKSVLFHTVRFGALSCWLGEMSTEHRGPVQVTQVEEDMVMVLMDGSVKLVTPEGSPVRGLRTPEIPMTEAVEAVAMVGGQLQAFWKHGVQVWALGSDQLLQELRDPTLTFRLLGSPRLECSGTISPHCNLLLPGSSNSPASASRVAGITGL

The first assay has as its target HPK1 (Homo sapiens, UniProt Q92918). Put plainly: HPK1 Biochemical Assay (ADP-Glo luminescence; low ATP 10 μM or high ATP 200 μM). To be noted: 2 nM HPK1, 10 μM ATP; read-out: Biochemical Potency (low ATP). A general note: ADP-Glo first removes unused ATP, then detects ADP through luciferase.
Consider `Cc1cc(Nc2cc3nc(-c4ccnc(C)c4)sc3cn2)nc(O[C@H]2CCNC2)c1` [Example 168, 4-Methyl-N-[2-(2-methylpyridin-4-yl)-[1,3]thiazolo[5,4-c]pyridin-6-yl]-6-[(3S)-pyrrolidin-3-yloxy]pyridin-2-amine], for which the IC50 was under 100 nM.
Same read-out and setting: to `c1cc(-c2nc3cc(Nc4ccc(C5CCOCC5)c(CN5CCOCC5)n4)ncc3s2)ccn1` [Example 219, 6-[(Morpholin-4-yl)methyl]-5-(oxan-4-yl)-N-[2-(pyridin-4-yl)-[1,3]thiazolo[5,4-c]pyridin-6-yl]pyridin-2-amine] belongs under 100 nM; to `Cc1cc(Nc2cc3nc(N4CCC[C@@H](O)C4)sc3cn2)nc(O[C@H]2CCNC2)c1` [Example 193, (3R)-1-(6-{[4-Methyl-6-((3S)-pyrrolidin-3-yloxy)pyridin-2-yl]amino}-[1,3]thiazolo[5,4-c]pyridin-2-yl)piperidin-3-ol], under 100 nM.
Regarding `Cc1ccc(Nc2cc3nc(-c4cncnc4)sc3cn2)nc1CN1CCCC1` [Example 58, 5-Methyl-N-[2-(pyrimidin-5-yl)-[1,3]thiazolo[5,4-c]pyridin-6-yl]-6-[(pyrrolidin-1-yl)methyl]pyridin-2-amine], the IC50 lay within 100 to 1000 nM.
Consider `Cc1cccnc1-c1nc2cc(Nc3cccc(N4CCN(C)C[C@H]4C)n3)ncc2s1` [Example 103, 6-[(2R)-2,4-Dimethylpiperazin-1-yl]-N-[2-(3-methylpyridin-2-yl)-[1,3]thiazolo[5,4-c]pyridin-6-yl]pyridin-2-amine], for which the IC50 was in the range of 100 to 1000 nM.
As for `CN1C[C@@H]2C[C@H]1CN2c1nccc(Nc2cc3nc(-c4ccnc(N5CC[C@H](O)C5)c4)sc3cn2)n1` [Example 266, (3S)-1-{4-[6-({2-[(1S,4S)-5-Methyl-2,5-diazabicyclo[2.2.1]heptan-2-yl]pyrimidin-4-yl}amino)-[1,3]thiazolo[5,4-c]pyridin-2-yl]pyridin-2-yl}pyrrolidin-3-ol], the IC50 was under 100 nM.
As to `Cc1cccnc1-c1nc2cc(Nc3ccc(C4CCOCC4)c(C4CCNC4)n3)ncc2s1` (centres unmarked) [Example 283, N-[2-(3-Methylpyridin-2-yl)-[1,3]thiazolo[5,4-c]pyridin-6-yl]-5-(oxan-4-yl)-6-(pyrrolidin-3-yl)pyridin-2-amine], the IC50 was under 100 nM.
Regarding `Cc1ccc(Nc2cc3nc(-c4cnn(C)c4)sc3cn2)nc1CN1CCCC1` [Example 51, 5-Methyl-N-[2-(1-methyl-1H-pyrazol-4-yl)-[1,3]thiazolo[5,4-c]pyridin-6-yl]-6-[(pyrrolidin-1-yl)methyl]pyridin-2-amine], the IC50 is under 100 nM.
The same measure, in the same setting: to `CN1C[C@@H]2C[C@H]1CN2c1nccc(Nc2cc3nc(-c4ncco4)sc3cn2)n1` [Example 157, 2-[(1S,4S)-5-Methyl-2,5-diazabicyclo[2.2.1]heptan-2-yl]-N-[2-(1,3-oxazol-2-yl)-[1,3]thiazolo[5,4-c]pyridin-6-yl]pyrimidin-4-amine] belongs under 100 nM; to `C[C@@H]1CCC(=O)N1c1nc2cc(Nc3ccc(C4CCOCC4)c(CN4CCCC4)n3)ncc2s1` [Example 207, (5R)-5-Methyl-1-(6-{[5-(oxan-4-yl)-6-[(pyrrolidin-1-yl)methyl]pyridin-2-yl]amino}-[1,3]thiazolo[5,4-c]pyridin-2-yl)pyrrolidin-2-one], 100 to 1000 nM; to `CN1C[C@@H]2C[C@H]1CN2c1cncc(Nc2cc3nc(-c4ccnc(C(C)(C)O)c4)sc3cn2)n1` [Example 151, 2-{4-[6-({6-[(1S,4S)-5-Methyl-2,5-diazabicyclo[2.2.1]heptan-2-yl]pyrazin-2-yl}amino)-[1,3]thiazolo[5,4-c]pyridin-2-yl]pyridin-2-yl}propan-2-ol], under 100 nM.
In the case of `Cc1cccnc1-c1nc2cc(Nc3ccc(C4CCOCC4)c(CN[C@@H]4CCOC4)n3)ncc2s1` [Example 215, N-[2-(3-Methylpyridin-2-yl)-[1,3]thiazolo[5,4-c]pyridin-6-yl]-5-(oxan-4-yl)-6-({[(3R)-oxolan-3-yl]amino}methyl)pyridin-2-amine], the IC50 was under 100 nM.
`Cc1cc(Nc2cc3nc(N4CCC(O)CC4)sc3cn2)nc(O[C@H]2CCNC2)c1` [Example 189, 1-(6-{[4-Methyl-6-((3S)-pyrrolidin-3-yloxy)pyridin-2-yl]amino}-[1,3]thiazolo[5,4-c]pyridin-2-yl)piperidin-4-ol]: the IC50 is under 100 nM.
Same read-out and setting: as for `Cc1cccnc1-c1nc2cc(Nc3nccc(N4C[C@@H]5C[C@H]4CN5)n3)ncc2s1` [Example 240, 4-[(1S,4S)-2,5-Diazabicyclo[2.2.1]heptan-2-yl]-N-[2-(3-methylpyridin-2-yl)-[1,3]thiazolo[5,4-c]pyridin-6-yl]pyrimidin-2-amine], the figure is 100 to 1000 nM; as for `Cc1cc(Nc2cc3nc(-c4ccnc(C)c4)sc3cn2)nc(N2CCC(C)(N)C2)c1` (centres unmarked) [Example 73, 6-(3-Amino-3-methylpyrrolidin-1-yl)-4-methyl-N-[2-(2-methylpyridin-4-yl)-[1,3]thiazolo[5,4-c]pyridin-6-yl]pyridin-2-amine], under 100 nM.
Still for that read-out and setting: as for `Cc1ccc(Nc2cc3nc(-n4nccc4C)sc3cn2)nc1N1CCN(CCO)CC1` [Example 203, 2-[4-(3-Methyl-6-{[2-(5-methyl-1H-pyrazol-1-yl)-[1,3]thiazolo[5,4-c]pyridin-6-yl]amino}pyridin-2-yl)piperazin-1-yl]ethan-1-ol], the figure is 100 to 1000 nM; as for `CN1C[C@@H]2C[C@H]1CN2c1cncc(Nc2cc3nc(-c4cc(N5CC[C@@H](F)C5)ccn4)sc3cn2)n1` [Example 125, N-(2-{4-[(3R)-3-Dluoropyrrolidin-1-yl]pyridin-2-yl}-[1,3]thiazolo[5,4-c]pyridin-6-yl)-6-[(1S,4S)-5-methyl-2,5-diazabicyclo[2.2.1]heptan-2-yl]pyrazin-2-amine], under 100 nM.
Turning to `Cc1ccc(Nc2cc3nc(-c4ncccn4)sc3cn2)nc1CN1CCCC1` [Example 55, 5-Methyl-N-[2-(pyrimidin-2-yl)-[1,3]thiazolo[5,4-c]pyridin-6-yl]-6-[(pyrrolidin-1-yl)methyl]pyridin-2-amine], the IC50 lay in the range of 100 to 1000 nM.
Same read-out and setting: as for `Cc1cc(-c2nc3cc(Nc4ccc(N5CCOCC5)c(CN5CCCC5)c4)ncc3s2)ccn1` [Example 2, 2-(2-Methylpyridin-4-yl)-N-[4-(morpholin-4-yl)-3-[(pyrrolidin-1-yl)methyl]phenyl]-[1,3]thiazolo[5,4-c]pyridin-6-amine], the figure is 100 to 1000 nM; as for `CN1C[C@@H]2C[C@H]1CN2c1nccc(Nc2cc3nc(-c4ccnc(N5CC[C@H](F)C5)c4)sc3cn2)n1` [Example 265, N-(2-{2-[(3S)-3-Fluoropyrrolidin-1-yl]pyridin-4-yl}-[1,3]thiazolo[5,4-c]pyridin-6-yl)-2-[(1S,4S)-5-methyl-2,5-diazabicyclo[2.2.1]heptan-2-yl]pyrimidin-4-amine], under 100 nM.
Same read-out and setting: as for `Cc1ccc(Nc2cc3nc(-c4ncccc4C)sc3cn2)nc1OC1CCNC1` (centres unmarked) [Example 162, 5-Methyl-N-[2-(3-methylpyridin-2-yl)-[1,3]thiazolo[5,4-c]pyridin-6-yl]-6-(pyrrolidin-3-yloxy)pyridin-2-amine], the figure is under 100 nM; as for `Cc1ccc(-c2nc3cc(Nc4ccc(C5CCOCC5)c(CN5CCCC5)n4)ncc3s2)cn1` [Example 222, N-[2-(6-Methylpyridin-3-yl)-[1,3]thiazolo[5,4-c]291yridine-6-yl]-5-(oxan-4-yl)-6-[(291yridine291ne-1-yl)methyl]291yridine-2-amine], under 100 nM; as for `CN1C[C@@H]2C[C@H]1CN2c1ccnc(Nc2cc3nc(-c4cccc(C(=O)N5CCCC5)c4)sc3cn2)n1` [Example 245, 4-[(1S,4S)-5-Methyl-2,5-diazabicyclo[2.2.1]heptan-2-yl]-N-{2-[3-(pyrrolidine-1-carbonyl)phenyl]-[1,3]thiazolo[5,4-c]pyridin-6-yl}pyrimidin-2-amine], 100 to 1000 nM.
The same measure, in the same setting: to `Cc1ccc(Nc2cc3nc(-n4nccc4C)sc3cn2)nc1N1CC[C@H](O)C1` [Example 202, (3S)-1-(3-Methyl-6-{[2-(5-methyl-1H-pyrazol-1-yl)-[1,3]thiazolo[5,4-c]pyridin-6-yl]amino}pyridin-2-yl)pyrrolidin-3-ol] belongs 100 to 1000 nM; to `Cc1cc(Nc2cc3nc(-c4ccnc(C)c4)sc3cn2)nc(OC2CNCC2(F)F)c1` (centres unmarked) [Example 171, 6-[(4,4-Difluoropyrrolidin-3-yl)oxy]-4-methyl-N-[2-(2-methylpyridin-4-yl)-[1,3]thiazolo[5,4-c]pyridin-6-yl]pyridin-2-amine], under 100 nM.
Turning to `Cc1cccnc1-c1nc2cc(Nc3cnc(C)c(N4C[C@@H]5C[C@H]4CN5C)n3)ncc2s1` [Example 154, 5-Methyl-6-[(1S,4S)-5-methyl-2,5-diazabicyclo[2.2.1]heptan-2-yl]-N-[2-(3-methylpyridin-2-yl)-[1,3]thiazolo[5,4-c]pyridin-6-yl]pyrazin-2-amine], the IC50 was under 100 nM.
Same read-out and setting: to `Cc1cc(Nc2cc3nc(C4CCOCC4)sc3cn2)nc(O[C@H]2CCNC2)c1` [Example 184, 4-Methyl-N-[2-(oxan-4-yl)-[1,3]thiazolo[5,4-c]pyridin-6-yl]-6-[(3S)-pyrrolidin-3-yloxy]pyridin-2-amine] belongs under 100 nM.

Staying with this assay, now noted: HPK1 ADP-Glo assay, high ATP (200 μM ATP, 5 nM HPK1); read-out: Biochemical Potency (high ATP).
As for `Cc1cc(Nc2cc3nc(-c4cccc(C(=O)N(C)[C@@H]5CCCOC5)c4)sc3cn2)nc(N2C[C@@H]3C[C@H]2CN3CCO)n1` [Example 542], the IC50 is under 100 nM.
Same read-out and setting: as for `Cc1cc(Nc2cc3nc(-c4cccc(C(=O)N(C)[C@@H]5CCOC5)c4)sc3cn2)nc(N2C[C@@H]3C[C@H]2CN3CCO)n1` [Example 559], the figure is under 100 nM.

The assay is the same for the next values; noted with them: HPK1 ADP-Glo assay, low ATP (10 μM ATP, 2 nM HPK1); read-out: Biochemical Potency (low ATP).
On to `CC(C)(O)c1cccc(-c2nc3cc(Nc4cc(C5CCOCC5)nc(N5C[C@@H]6C[C@H]5CN6)n4)ncc3s2)c1` [Example 442], for which the IC50 was under 100 nM.
Consider `CN1C[C@@H]2C[C@H]1CN2c1nccc(Nc2cc3nc(-c4ccnc(N5CC[C@@H](O)C5)c4)sc3cn2)n1` [Example 465], for which the IC50 was under 100 nM.
Regarding `CN1C[C@@H]2C[C@H]1CN2c1cncc(Nc2cc3nc(-c4cccc(C(C)(C)O)c4)sc3cn2)n1` [Example 418], the IC50 was under 100 nM.
